According to article PMC11879040, “Advancing systemic toxicity risk assessment: Evaluation of a NAM-based toolbox approach” (Toxicological Sciences, 2024):
Read-outs that look alike come from different tables or passages of the source.

Experiments:
[1] = test system: Potassium Voltage-Gated Channel Kv non-selective, KCNQ1 (r); assay: IPP KCNQ1 binding (antagonist radioligand); set-up: species or system rat; conditions: IPP screening at 100 uM; control α-dendrotoxin
[2] = test system: Gamma-aminobutyric acid receptor subunit alpha-1 BZD site, GABRA1A (r); assay type: binding, rat
[3] = test system: Sodium channel protein type 5 subunit alpha (site 2), SCN5A (r); assay type: binding, rat
[4] = biological target: T1, Adenosine receptor A2a, ADORA2A (h) (Homo sapiens, UniProt P29274); assay: IPP ADORA2A binding (agonist radioligand); conditions: IPP screening at 100 uM; control NECA
T1 construct: purchased Eurofins Cerep (SafetyScreen44-based IPP panel)
T1 sequence (P29274 whole entry): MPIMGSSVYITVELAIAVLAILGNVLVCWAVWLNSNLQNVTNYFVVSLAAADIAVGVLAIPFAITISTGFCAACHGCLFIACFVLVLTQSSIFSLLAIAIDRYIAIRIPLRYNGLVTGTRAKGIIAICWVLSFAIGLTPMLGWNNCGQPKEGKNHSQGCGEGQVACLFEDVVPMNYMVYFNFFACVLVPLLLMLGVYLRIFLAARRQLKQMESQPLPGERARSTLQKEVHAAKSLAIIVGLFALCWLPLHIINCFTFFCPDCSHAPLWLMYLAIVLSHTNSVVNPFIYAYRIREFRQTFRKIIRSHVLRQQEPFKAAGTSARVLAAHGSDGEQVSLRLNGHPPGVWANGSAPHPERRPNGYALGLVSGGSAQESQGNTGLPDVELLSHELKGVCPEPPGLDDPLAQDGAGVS

[5] = test system: Thyroid hormone receptor alpha, THRA (h); assay: IPP THRA coactivator recruitment (agonist); assay type: biochemical, human; conditions: 100 uM; agonist; T3; * denotes assay interference (2-Amino-6-chloro-4-nitrophenol, HC Red 3)
Tubulin (r) = assay: IPP Tubulin binding; set-up: species or system rat; conditions: 100 uM; ligand/control Colchicine
HepG2 cells [6] = assay: Cell stress panel (CSP), 24 h, 8 concentrations, BIFROST global PoD; assay type: cell-based; conditions: HepG2; cell stress panel PoD
Procedure: Compounds were tested using the previously developed cell stress panel ([Hatherell et al. 2020]) and the expanded biomarker panel outlined in Middleton et al. HepG2 cells were treated with all compounds for 24 h across 8 concentrations prior to biomarker analysis. The same plate layout and number of replicates (3 biological and 2 technical) were used as previously for each assay within the panel.

HepG2 cells [7] = assay: High-throughput transcriptomics (HTTr, TempO-Seq), HepG2, 24 h; assay type: cell-based, human; conditions: HepG2; for pod_httr_bifrost PoD: HTTr BIFROST PoD; for podl_path_minbmd PoD: HTTr minimum pathway BMD(L)
Procedure: (§1) HepG2, HepaRG, and MCF7 cells were treated with each compound for 24 h across a dose range of 7 concentrations and lysed using TempO-Seq lysis buffer (BioSpyder Technologies, proprietary kit, see [Middleton et al. 2022] for method details). Sequencing was performed using TempO-Seq (BioClavis) version 2 of the human whole transcriptome panel and analyzed as described previously in Middleton et al.

HepaRG cells = assay: High-throughput transcriptomics (HTTr, TempO-Seq), HepaRG, 24 h; assay type: cell-based, human; conditions: HepaRG; for pod_httr_bifrost PoD: HTTr BIFROST PoD; for podl_path_minbmd PoD: HTTr minimum pathway BMD(L)
Procedure: as §1

MCF7 cells = assay: High-throughput transcriptomics (HTTr, TempO-Seq), MCF7, 24 h; assay type: cell-based, human; conditions: MCF-7; for pod_httr_bifrost PoD: HTTr BIFROST PoD; for podl_path_minbmd PoD: HTTr minimum pathway BMD(L)
Procedure: as §1

[8] = intestinal absorption (PBK input); assay type: in vitro ADME; conditions: levels L2/L3, converted from [36]
[9] = test system: 63 targets with known safety liabilities; assay: In vitro pharmacological profiling (IPP) panel, screening at 10 or 100 µM and dose response, minimum IC50/AC50; assay type: biochemical; conditions: lowest AC50 across IPP panel (systemic targets); cell_type -; read-out: ipp_lowest_ac50_systemic PoD
[10] = test system: Glutamate receptor ionotropic NMDA 1 non-selective, GRIN1 (r)
rat = conditions: rat; repeat dose toxicity : oral; ref ToxRefDB/Paul-Friedman et al. (2020)/regulatory opinions; cited from earlier work
[11] = cited from earlier work
[12] = hepatic intrinsic clearance (Clint); conditions: PBK input, levels L2/L3; scaled from [10]
[13] = Assignment of risk classifications to benchmark chemical-exposure scenarios; conditions: for risk: from table S1
[14] = human
monkey = conditions: cited from earlier work
human = conditions: 7 month human volunteer study; ref [19-22]; cited from earlier work
[15] = ref [19-22]; cited from earlier work
[16] = biological target: Voltage-dependent L-type Ca2+ channel (dihydropyridine site), CACNA1C (r) (Rattus norvegicus, UniProt P22002); assay type: binding
Voltage-dependent L-type Ca2+ channel (dihydropyridine site), CACNA1C (r), sequence (P22002 whole entry): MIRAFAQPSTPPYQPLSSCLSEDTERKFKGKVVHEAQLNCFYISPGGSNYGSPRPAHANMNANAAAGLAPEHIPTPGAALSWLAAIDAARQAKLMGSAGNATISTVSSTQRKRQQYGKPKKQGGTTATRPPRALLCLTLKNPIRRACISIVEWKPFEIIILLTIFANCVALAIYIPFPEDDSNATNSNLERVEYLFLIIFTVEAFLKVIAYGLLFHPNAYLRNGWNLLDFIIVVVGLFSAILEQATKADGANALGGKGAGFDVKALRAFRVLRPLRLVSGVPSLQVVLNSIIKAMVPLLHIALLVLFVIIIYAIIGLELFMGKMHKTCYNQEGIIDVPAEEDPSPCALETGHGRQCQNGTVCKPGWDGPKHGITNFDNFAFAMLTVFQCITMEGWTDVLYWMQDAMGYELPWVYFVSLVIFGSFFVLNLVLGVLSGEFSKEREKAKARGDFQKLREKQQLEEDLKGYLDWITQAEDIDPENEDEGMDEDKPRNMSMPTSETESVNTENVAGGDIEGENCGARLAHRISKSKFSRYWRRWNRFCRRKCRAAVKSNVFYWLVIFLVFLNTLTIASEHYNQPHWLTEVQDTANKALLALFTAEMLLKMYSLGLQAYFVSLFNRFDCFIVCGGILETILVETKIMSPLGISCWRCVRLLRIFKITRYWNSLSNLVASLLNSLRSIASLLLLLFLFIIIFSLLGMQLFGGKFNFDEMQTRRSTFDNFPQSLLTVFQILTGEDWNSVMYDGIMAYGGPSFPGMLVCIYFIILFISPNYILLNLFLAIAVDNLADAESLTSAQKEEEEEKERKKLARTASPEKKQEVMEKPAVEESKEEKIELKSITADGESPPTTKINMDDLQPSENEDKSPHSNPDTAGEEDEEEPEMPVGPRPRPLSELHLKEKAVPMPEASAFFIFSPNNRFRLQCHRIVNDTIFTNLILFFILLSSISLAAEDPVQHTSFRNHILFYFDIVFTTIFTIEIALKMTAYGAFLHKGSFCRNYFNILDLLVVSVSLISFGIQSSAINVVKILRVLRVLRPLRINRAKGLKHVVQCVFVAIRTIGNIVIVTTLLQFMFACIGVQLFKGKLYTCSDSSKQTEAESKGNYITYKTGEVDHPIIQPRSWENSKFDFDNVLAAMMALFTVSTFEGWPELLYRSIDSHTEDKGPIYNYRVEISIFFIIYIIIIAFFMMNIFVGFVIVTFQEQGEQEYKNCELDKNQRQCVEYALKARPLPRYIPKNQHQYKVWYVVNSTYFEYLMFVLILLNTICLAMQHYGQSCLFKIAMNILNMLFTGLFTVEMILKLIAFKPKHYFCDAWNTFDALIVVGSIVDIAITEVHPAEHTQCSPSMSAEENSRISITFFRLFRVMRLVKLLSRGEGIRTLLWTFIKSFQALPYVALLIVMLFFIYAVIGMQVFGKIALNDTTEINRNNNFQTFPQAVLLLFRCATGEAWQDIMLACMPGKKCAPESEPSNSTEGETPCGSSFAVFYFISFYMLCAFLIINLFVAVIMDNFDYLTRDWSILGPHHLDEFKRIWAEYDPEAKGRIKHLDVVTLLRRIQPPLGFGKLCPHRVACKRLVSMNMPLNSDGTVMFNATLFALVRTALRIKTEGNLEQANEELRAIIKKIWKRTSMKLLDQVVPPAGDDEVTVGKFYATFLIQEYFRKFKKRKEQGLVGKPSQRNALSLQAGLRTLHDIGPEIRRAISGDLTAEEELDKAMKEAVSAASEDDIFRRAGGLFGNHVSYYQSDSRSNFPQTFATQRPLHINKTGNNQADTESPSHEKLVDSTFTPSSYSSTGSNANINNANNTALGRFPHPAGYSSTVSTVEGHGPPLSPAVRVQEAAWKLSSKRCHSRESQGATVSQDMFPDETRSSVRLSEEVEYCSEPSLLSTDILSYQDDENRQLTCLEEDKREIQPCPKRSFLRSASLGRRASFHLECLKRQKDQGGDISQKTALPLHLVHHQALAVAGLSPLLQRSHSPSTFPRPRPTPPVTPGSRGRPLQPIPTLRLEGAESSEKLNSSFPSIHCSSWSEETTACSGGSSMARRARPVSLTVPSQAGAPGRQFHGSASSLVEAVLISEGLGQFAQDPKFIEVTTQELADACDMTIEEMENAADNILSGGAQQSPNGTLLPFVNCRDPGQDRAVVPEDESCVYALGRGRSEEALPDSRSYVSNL

[17] = cited from earlier work; remark: listed apart in the source
[18] = per chemical see Peff Reference, cited from earlier work
[19] = skin penetration (PBK input)
[20] = IPP screening at 100 uM, control diazepam
[21] = IPP screening at 100 uM, control CGS 19755
[22] = IV 200 mg slow IV (3min), 8 healthy male, validation, ref Martin et al. 1990
[23] = IV 400 mg slow IV (3min), 8 healthy male, validation, ref Martin et al. 1990
[24] = IV 800 mg infusion over five to seven minutes, 12 healthy, calibration, ref Pavliv et al. 2011
[25] = Oral 400 mg tablet, fasted, 18 healthy elderly, validation, ref Albert et al. 1984
[26] = Oral 500 mg ibuprofen lysine tablet (equivalent to 292.6 mg ibuprofen free acid), fasted, 8 healthy male, validation, ref Martin et al. 1990
[27] = Oral 800 mg tablet, fasted, 12 healthy, calibration, ref Pavliv et al. 2011
[28] = Oral 800 mg tablet, fasted, 13 healthy, validation, ref Duxin et al. 2017
[29] = Oral 800 mg tablet, fasted, 18 healthy elderly, validation, ref Albert et al. 1984
[30] = Oral 800 mg tablet, fed, 10 healthy, validation, ref Duxin et al. 2017
[31] = Oral 1200 mg tablet, fasted, 18 healthy elderly, validation, ref Albert et al. 1984
[32] = PBK level L2, optimised based on [21] (glutaraldehyde), [23] (HCRed3), [28] (ibuprofen)
[33] = PBK level L3, optimised based on [28]

In the case of `CC(=O)Nc1ccc(O)cc1` [Paracetamol, N-(4-Hydroxyphenyl)acetamide], the Specific binding [1] is reported as -3.6%, the Specific binding [2, 20] is reported as 8.7% and the Specific binding [3] is reported as 34.9%. The Specific binding [4] was 6.7%, the “IPP screening %, Coactivator recruitment” value [5] was 1.0% and the “IPP screening %, Specific binding” value (Tubulin (r)) was -2%. The “pod_cell_stress PoD” value (HepG2 cells [6]) was 40.132 µM, the “pod_httr_bifrost PoD” value (HepG2 cells [7]) was 9.465 µM and the “podl_path_minbmd PoD” value (HepG2 cells [7]) was 262.202 µM. The “pod_httr_bifrost PoD” value (HepaRG cells) was 76.0572 µM, the “podl_path_minbmd PoD” value (HepaRG cells) was 322.442 µM and the “pod_httr_bifrost PoD” value (MCF7 cells) was 4.261 µM. For the same compound, the “podl_path_minbmd PoD” value (MCF7 cells) was 184.341 µM, the Peff [8] was 3.56 cm/s x E-04 and the AC50 [9] was 39.1 µM. For the same compound, the Specific binding [10, 21] was -4.2%, the “PoD (LOEL)” value (rat) was 30 mg/kg bw/day and the Fup ([11]; PBK input, level L2, ref [10]) was 100%. For the same compound, the “Intrinsic Liver Clearance” value [12] was 10.79 L/h, the “Risk Classification” value ([13]; IV 4000 mg/day) was “High risk” and the risk ([13]; IV, High therapeutic, 4g/day, Exp3) was 1. For the same compound, the “Risk Classification” value ([13]; Oral 500 mg/day) was “High risk”, the “Risk Classification” value ([13]; Oral 4000 mg/day) was “High risk” and the risk ([13]; Oral, High therapeutic, 4000mg/day, Tablet, Exp1) was 1. For the same compound, the risk ([13]; Oral, Low therapeutic, 500mg/day, Tablet, Exp2) was 1.
In the case of `O=S(=O)(O)NC1CCCCC1` [Cyclamate, Sodium cyclohexylsulfamate], the Specific binding [1] is reported as 0.6%, the Specific binding [2] is reported as -8.6% and the Specific binding [3] is reported as 19.1%. The Specific binding [4] was 1.0%, the “IPP screening %, Coactivator recruitment” value [5] was 2.0% and the “IPP screening %, Specific binding” value (Tubulin (r)) was 21.0%. For the same compound, the “pod_cell_stress PoD” value (HepG2 cells [6]) was 480.52 µM, the “responding probes (with CDS > 0.5)” value (HepG2 cells [7]) was 22 and the “responding probes (with CDS > 0.5)” value (HepaRG cells) was 7. The “responding probes (with CDS > 0.5)” value (MCF7 cells) was 18, the Specific binding [10] was -4.4% and the risk [14] was 0. The “male monkeys showing testicular effects” value (monkey; lifetime monkey study, 500 mg/kg bw/day, at 23 years, ref [19-22]) was 2/5, the “dietary level at which persistent diarrhoea was noted” value (human) was ≥ 141 mg/kg bw/day and the ADI [15] was 7 mg/kg bw/day.
With `CC(C)Cc1ccc(C(C)C(=O)O)cc1` (stereo not drawn) [Ibuprofen, 2-[4-(2-Methylpropyl)phenyl]propanoic acid] the Specific binding [16] was -14.3%, the Specific binding [1] was -8.5% and the Specific binding [2, 20] was 5.3%. For the same compound, the Specific binding [3] was 32.1%, the “IPP screening %, Coactivator recruitment” value [5] was 1.0% and the “IPP screening %, Specific binding” value (Tubulin (r)) was -14.0%. For the same compound, the “pod_cell_stress PoD” value (HepG2 cells [6]) was 8.518 µM, the “pod_httr_bifrost PoD” value (HepG2 cells [7]) was 7.6781 µM and the “podl_path_minbmd PoD” value (HepG2 cells [7]) was 30.2909 µM. The “pod_httr_bifrost PoD” value (HepaRG cells) was 0.1626 µM, the “podl_path_minbmd PoD” value (HepaRG cells) was 8.099 µM and the “pod_httr_bifrost PoD” value (MCF7 cells) was 42.8965 µM. The “podl_path_minbmd PoD” value (MCF7 cells) was 150.462 µM, the Specific binding [10, 21] was 7.2% and the “PoD (NOAEL)” value (monkey; monkey, 52 weeks, ref ToxRefDB/Paul-Friedman et al. (2020)/regulatory opinions) was 40 mg/kg bw/day. For the same compound, the “Reported AUC0-t” value [17, 22] was 59.96 µg·h/mL, the Reported cmax [17, 22] was 39 µg/mL and the “Reported AUC0-t” value [17, 23] was 117.4 µg·h/mL. The Reported cmax [17, 23] was 79.75 µg/mL, the “Reported AUC0-t” value [17, 24] was 187.4 µg·h/mL and the Reported cmax [17, 24] was 120.2 µg/mL. For the same compound, the “Reported AUC0-t” value [17, 25] was 128 µg·h/mL, the Reported cmax [17, 25] was 32.5 µg/mL and the “Reported AUC0-t” value [17, 26] was 85.59 µg·h/mL. The Reported cmax [17, 26] was 30.32 µg/mL, the “Reported AUC0-t” value [17, 27] was 187.4 µg·h/mL and the Reported cmax [17, 27] was 57.3 µg/mL. The “Reported AUC0-t” value [17, 28] was 252 µg·h/mL, the Reported cmax [17, 28] was 41.52 µg/mL and the “Reported AUC0-t” value [17, 29] was 236.6 µg·h/mL. For the same compound, the Reported cmax [17, 29] was 60.2 µg/mL, the “Reported AUC0-t” value [17, 30] was 223 µg·h/mL and the Reported cmax [17, 30] was 25.22 µg/mL. For the same compound, the “Reported AUC0-t” value [17, 31] was 279.2 µg·h/mL, the Reported cmax [17, 31] was 71.1 µg/mL and the Fup ([11]; PBK level L2, single value or median, ref [2],[4],[6],[7],[8],[10],[11],[15],[18],[27],[34]) was 1.3%. For the same compound, the Fup ([11]; PBK level L3, single value or median, ref [2],[4],[6],[7],[8],[10],[11],[15],[18],[27],[34]) was 1.3%, the Peff ([18]; PBK level L2, ref [3],[4],[11]) was 5.034 cm/s x E-04 and the Peff ([18]; PBK level L3, ref [4],[11]) was 5.034 cm/s x E-04. The “Diffusivity Dermis” value [19, 32] was 1.00E-06 cm^2/s, the “Diffusivity Stratum Corneum” value [19, 32] was 1.00E-09 cm^2/s and the “Diffusivity Viable Epidermis” value [19, 32] was 1.00E-06 cm^2/s. The “Partition Coefficient Stratum Corneum/Water” value ([19]; PBK level L2, optimised based on [21] (glutaraldehyde), [23] (HCRed3), [28] (ibuprofen), no reference printed (DEET)) was 1500.00, the “Partition Coefficient Viable Epidermis/Water” value ([19]; PBK level L2, optimised based on [21] (glutaraldehyde), [28] (ibuprofen)) was 700.00 and the “Diffusivity Vehicle” value ([19]; PBK level L2, optimised based on [23] (HCRed3), [28] (ibuprofen)) was 1.00E-05 cm^2/s. For the same compound, the “Partition Coefficient Vehicle/Water” value ([19]; PBK level L2, optimised based on [28]) was 10.00, the “Diffusivity Dermis” value [19, 33] was 1.00E-06 cm^2/s and the “Diffusivity Stratum Corneum” value [19, 33] was 1.00E-09 cm^2/s. The “Diffusivity Vehicle” value [19, 33] was 1.00E-05 cm^2/s, the “Diffusivity Viable Epidermis” value [19, 33] was 1.00E-06 cm^2/s and the “Partition Coefficient Stratum Corneum/Water” value [19, 33] was 1500.00. For the same compound, the “Partition Coefficient Vehicle/Water” value [19, 33] was 10.00, the “Partition Coefficient Viable Epidermis/Water” value [19, 33] was 700.00 and the risk ([13]; Dermal, 10%, Gel, Exp3) was 1. It also gave a risk ([13]; Oral, High therapeutic, 1200mg/day, Tablet, Exp1) of 1 and a risk ([13]; Oral, Low therapeutic, 200mg/day, Tablet, Exp2) of 1.
